From ChEMBL document CHEMBL5465560, “Selectivity Literature for EUbOPEN Chemogenomic Library” (2024)
Blank lines part the entries; values can stand above or below the compound they belong to.

How the values were obtained:
[1] = molecular target: AP2-associated protein kinase 1 (Homo sapiens, UniProt Q2M2I8); assay: Selectivity interaction (KinomeScan (DiscoverX)) EUB0001049a AAK1; settings: at 1 µM
[2] = molecular target: Mitogen-activated protein kinase kinase kinase 8 (Homo sapiens, UniProt P41279); assay: Selectivity interaction (Kinase panel (33PanQinase(R) Activity Assay)) EUB0000877a MAP3K8
[3] = molecular target: Serine/threonine-protein kinase pim-2 (Homo sapiens, UniProt Q9P1W9); assay: Selectivity interaction (Kinase panel (literature)) EUB0001199aCl PIM2; settings: at 1 µM
[4] = molecular target: T1, Serine/threonine-protein kinase NLK (Homo sapiens) (UniProt Q9UBE8); assay: Selectivity interaction (LanthaScreen Eu Kinase Binding Assay) EUB0001632a NLK; settings: at 10 µM
T1 sequence (whole entry): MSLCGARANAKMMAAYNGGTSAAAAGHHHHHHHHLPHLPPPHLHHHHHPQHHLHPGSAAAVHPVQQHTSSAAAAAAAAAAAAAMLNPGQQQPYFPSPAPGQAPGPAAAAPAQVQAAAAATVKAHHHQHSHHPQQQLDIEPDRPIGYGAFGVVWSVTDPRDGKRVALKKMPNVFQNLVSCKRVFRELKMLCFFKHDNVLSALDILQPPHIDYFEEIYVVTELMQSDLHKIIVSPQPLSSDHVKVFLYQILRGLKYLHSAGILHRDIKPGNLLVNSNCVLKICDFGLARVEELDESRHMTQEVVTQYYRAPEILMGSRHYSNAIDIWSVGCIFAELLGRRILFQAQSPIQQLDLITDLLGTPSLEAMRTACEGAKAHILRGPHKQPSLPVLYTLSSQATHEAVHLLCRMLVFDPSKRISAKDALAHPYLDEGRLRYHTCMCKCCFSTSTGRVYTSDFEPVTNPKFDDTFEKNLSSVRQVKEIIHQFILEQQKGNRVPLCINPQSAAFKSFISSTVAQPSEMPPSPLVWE

[5] = molecular target: Histone-lysine N-methyltransferase ASH1L (Homo sapiens) (UniProt Q9NR48); assay: Selectivity interaction (Methyltransferase screen (radiometric assays, panel of 8 PRMTs, 21 protein lysine methyltransferases, 3 DNA methyltransferases, and one RNA methyltransferase)) EUB0000272b ASH1L
[6] = molecular target: Cyclin-dependent kinase 2 (Homo sapiens, UniProt P24941); assay: Selectivity interaction (Kinase panel (enzymatic assay)) EUB0000595a CDK2
[7] = molecular target: T2, Tyrosine-protein kinase Mer (Homo sapiens) (UniProt Q12866); assay: Selectivity interaction (KinomeScan (DiscoverX)) EUB0000595a MERTK; settings: at 10 µM
T2 sequence (whole entry): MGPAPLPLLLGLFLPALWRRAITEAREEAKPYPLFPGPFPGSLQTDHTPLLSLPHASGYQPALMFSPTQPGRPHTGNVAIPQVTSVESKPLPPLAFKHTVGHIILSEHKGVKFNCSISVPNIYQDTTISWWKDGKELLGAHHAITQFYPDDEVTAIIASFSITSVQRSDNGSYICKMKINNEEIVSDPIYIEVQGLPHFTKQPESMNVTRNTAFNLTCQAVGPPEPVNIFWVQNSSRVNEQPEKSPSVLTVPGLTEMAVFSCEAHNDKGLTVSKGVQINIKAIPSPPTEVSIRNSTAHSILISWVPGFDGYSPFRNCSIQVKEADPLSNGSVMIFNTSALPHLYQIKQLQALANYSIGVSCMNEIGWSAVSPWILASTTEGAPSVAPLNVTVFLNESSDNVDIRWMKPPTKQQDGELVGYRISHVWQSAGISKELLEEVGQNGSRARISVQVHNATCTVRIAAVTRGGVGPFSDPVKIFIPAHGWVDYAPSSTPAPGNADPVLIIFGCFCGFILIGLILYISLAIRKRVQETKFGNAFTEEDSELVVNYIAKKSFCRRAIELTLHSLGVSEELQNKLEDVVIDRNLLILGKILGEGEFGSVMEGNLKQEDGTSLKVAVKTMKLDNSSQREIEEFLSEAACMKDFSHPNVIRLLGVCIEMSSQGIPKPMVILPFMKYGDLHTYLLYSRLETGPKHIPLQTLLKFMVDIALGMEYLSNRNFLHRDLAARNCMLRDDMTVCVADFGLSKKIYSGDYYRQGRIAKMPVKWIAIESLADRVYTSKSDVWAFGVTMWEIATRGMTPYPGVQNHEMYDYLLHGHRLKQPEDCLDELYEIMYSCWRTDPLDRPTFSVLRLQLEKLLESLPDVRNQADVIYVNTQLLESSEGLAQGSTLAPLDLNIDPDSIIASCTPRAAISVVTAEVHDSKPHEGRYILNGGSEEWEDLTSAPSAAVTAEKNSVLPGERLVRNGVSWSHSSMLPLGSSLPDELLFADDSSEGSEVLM

[8] = molecular target: Calcium/calmodulin-dependent protein kinase type 1G (Homo sapiens) (UniProt Q96NX5); settings: at 10 µM
[9] = molecular target: STE20/SPS1-related proline-alanine-rich protein kinase (Homo sapiens) (UniProt Q9UEW8); assay: Selectivity interaction (KinomeScan (DiscoverX)) EUB0001079a STK39; settings: at 1 µM
[10] = molecular target: Serine/threonine-protein kinase MRCK beta (Homo sapiens) (UniProt Q9Y5S2); assay: Selectivity interaction (KinomeScan (DiscoverX)) EUB0001619a CDC42BPB; settings: at 1 µM
[11] = molecular target: Casein kinase I isoform alpha (Homo sapiens, UniProt P48729); assay: Selectivity interaction (KinomeScan (DiscoverX)) EUB0000618a CSNK1A1; settings: at 10 µM
[12] = molecular target: Calcium/calmodulin-dependent protein kinase type II subunit gamma (Homo sapiens) (UniProt Q13555); assay: Selectivity interaction (KinomeScan (DiscoverX)) EUB0000607a CAMK2G; settings: at 10 µM
[13] = molecular target: Histone-lysine N-methyltransferase 2C (Homo sapiens) (UniProt Q8NEZ4); assay: Selectivity interaction (Methyltransferase screen (Scintillation proximity assays)) EUB0000255b MLL3
Sequence of Histone-lysine N-methyltransferase 2C (Homo sapiens) (Q8NEZ4 whole entry): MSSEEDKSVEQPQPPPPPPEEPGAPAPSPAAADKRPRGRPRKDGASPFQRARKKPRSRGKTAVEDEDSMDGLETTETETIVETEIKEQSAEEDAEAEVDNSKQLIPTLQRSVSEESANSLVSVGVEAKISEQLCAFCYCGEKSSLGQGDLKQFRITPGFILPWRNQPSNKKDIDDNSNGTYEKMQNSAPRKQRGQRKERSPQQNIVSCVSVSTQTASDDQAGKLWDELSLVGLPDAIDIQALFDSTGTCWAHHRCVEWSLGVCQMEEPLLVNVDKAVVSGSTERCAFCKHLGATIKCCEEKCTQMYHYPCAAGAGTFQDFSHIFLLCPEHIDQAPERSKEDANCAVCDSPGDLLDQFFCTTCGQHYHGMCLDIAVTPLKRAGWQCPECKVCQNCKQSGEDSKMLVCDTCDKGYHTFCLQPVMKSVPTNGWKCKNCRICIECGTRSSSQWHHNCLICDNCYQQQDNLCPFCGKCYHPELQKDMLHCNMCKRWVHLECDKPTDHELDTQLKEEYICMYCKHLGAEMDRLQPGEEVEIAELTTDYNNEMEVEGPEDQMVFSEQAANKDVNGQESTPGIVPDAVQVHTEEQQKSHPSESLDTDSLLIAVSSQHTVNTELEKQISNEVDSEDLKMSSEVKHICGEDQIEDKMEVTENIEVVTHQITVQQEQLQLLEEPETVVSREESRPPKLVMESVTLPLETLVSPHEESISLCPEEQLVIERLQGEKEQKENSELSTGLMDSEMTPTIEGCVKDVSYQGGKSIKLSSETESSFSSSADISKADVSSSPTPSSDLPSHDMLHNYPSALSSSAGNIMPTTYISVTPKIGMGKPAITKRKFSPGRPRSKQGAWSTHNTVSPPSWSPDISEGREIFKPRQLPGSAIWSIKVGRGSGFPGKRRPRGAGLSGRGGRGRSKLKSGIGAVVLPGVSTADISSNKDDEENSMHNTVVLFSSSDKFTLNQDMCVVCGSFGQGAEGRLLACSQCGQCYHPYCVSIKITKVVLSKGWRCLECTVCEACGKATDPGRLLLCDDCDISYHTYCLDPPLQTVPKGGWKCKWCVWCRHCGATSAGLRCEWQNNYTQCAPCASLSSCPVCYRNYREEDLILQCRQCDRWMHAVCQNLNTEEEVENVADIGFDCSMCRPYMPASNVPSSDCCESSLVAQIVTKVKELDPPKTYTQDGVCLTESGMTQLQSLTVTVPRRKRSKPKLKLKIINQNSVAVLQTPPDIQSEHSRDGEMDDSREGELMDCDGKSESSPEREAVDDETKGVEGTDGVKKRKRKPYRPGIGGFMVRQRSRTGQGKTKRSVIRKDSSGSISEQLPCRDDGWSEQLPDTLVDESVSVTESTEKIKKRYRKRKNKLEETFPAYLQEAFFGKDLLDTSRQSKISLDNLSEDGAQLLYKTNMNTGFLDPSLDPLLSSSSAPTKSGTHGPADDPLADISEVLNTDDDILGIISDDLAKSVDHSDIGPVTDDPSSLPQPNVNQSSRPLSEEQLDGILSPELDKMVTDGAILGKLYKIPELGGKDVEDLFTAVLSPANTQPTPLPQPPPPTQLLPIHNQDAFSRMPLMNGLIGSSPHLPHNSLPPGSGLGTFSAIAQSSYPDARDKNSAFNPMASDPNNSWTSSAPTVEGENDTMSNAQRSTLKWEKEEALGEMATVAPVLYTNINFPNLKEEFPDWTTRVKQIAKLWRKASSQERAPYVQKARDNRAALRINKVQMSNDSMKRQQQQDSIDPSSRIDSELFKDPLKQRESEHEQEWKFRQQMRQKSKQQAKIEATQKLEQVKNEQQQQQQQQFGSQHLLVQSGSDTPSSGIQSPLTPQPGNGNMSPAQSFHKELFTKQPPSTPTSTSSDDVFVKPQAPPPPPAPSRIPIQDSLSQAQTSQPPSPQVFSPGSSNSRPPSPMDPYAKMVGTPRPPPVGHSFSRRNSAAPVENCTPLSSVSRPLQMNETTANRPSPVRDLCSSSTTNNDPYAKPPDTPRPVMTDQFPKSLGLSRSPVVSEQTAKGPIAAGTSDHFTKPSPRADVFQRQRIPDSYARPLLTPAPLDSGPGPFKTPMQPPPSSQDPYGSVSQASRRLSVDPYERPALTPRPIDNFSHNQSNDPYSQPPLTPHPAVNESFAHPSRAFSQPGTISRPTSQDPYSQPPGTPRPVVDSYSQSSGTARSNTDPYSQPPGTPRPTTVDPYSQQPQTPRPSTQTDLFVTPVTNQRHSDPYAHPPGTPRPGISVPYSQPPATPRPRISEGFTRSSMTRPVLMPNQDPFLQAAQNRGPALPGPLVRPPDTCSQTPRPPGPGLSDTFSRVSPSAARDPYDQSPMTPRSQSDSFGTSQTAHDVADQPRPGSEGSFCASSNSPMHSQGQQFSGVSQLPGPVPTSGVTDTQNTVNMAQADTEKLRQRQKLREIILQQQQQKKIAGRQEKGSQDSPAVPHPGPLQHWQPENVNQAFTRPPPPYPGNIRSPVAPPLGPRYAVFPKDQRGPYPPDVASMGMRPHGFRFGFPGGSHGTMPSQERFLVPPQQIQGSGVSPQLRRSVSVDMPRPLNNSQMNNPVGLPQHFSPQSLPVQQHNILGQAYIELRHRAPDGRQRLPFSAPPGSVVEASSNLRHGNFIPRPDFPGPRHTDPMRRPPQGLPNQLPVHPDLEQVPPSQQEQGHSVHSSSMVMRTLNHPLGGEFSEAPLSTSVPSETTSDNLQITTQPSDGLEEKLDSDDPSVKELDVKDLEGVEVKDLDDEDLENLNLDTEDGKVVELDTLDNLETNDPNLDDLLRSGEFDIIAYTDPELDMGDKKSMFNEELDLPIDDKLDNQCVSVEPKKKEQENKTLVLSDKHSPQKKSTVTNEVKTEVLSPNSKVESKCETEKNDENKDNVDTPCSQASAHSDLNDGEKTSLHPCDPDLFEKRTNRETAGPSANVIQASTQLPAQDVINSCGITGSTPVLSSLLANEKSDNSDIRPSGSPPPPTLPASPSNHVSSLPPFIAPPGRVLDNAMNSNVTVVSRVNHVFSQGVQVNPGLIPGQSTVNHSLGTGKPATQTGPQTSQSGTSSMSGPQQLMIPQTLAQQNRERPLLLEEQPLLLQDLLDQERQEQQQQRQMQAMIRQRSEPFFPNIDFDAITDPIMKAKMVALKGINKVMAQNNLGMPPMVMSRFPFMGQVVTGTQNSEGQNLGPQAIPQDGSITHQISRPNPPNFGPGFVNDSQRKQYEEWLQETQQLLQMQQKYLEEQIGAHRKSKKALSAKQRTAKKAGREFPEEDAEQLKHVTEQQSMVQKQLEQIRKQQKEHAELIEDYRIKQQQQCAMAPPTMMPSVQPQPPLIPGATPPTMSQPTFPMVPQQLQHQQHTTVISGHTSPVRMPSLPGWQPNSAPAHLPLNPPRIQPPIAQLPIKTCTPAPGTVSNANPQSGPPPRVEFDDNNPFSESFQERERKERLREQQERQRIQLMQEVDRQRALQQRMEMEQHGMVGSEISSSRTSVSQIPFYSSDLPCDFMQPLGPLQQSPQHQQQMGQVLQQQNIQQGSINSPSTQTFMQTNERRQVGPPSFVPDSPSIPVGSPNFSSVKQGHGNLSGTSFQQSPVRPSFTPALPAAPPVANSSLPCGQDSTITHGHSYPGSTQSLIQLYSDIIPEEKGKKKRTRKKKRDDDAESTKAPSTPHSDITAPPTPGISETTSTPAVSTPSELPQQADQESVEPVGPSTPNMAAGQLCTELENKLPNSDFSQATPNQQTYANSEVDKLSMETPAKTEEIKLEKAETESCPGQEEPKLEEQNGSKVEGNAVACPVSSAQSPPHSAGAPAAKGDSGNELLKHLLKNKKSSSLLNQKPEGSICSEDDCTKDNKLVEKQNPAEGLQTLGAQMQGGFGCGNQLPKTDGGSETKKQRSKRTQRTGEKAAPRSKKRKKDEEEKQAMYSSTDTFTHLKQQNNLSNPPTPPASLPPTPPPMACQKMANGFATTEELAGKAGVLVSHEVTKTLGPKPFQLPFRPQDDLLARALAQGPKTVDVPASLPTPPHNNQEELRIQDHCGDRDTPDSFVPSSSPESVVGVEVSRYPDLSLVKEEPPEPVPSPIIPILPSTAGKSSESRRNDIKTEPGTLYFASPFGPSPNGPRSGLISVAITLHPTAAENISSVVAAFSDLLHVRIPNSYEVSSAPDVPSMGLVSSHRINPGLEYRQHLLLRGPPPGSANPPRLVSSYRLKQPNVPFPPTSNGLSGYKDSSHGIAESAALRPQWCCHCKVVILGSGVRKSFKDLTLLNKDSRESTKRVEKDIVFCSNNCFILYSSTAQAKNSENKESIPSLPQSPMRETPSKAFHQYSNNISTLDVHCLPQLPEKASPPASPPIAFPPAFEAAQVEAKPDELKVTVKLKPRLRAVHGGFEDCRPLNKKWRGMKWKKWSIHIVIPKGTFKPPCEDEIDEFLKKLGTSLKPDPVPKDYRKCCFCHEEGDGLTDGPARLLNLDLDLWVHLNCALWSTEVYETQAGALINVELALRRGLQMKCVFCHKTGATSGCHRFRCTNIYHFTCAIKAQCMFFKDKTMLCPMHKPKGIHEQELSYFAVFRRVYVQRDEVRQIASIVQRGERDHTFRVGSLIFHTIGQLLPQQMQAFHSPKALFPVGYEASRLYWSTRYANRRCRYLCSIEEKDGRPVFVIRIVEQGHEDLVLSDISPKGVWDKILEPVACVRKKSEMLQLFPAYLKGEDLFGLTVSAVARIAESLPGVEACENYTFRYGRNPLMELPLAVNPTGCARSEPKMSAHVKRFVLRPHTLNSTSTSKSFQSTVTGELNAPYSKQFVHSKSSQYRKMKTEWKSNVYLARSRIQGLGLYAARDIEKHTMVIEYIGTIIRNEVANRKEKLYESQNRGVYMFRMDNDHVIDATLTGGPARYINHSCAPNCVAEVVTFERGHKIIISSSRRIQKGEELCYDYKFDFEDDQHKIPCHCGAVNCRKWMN

Compound: COc1cc(Nc2nc(C)cc(-c3cnn4nc(OC)ccc34)n2)cc(C(F)(F)F)c1
- % of control [1]: 96%

- IC50 [2]: > 10 µM
Compound: CCC(=O)N1CC[C@H](Nc2ncnc3c2CN(c2cnc(OC)c(C(F)(F)F)c2)CC3)C1 [LENIOLISIB]

- % of inhibition [3]: -2%
Compound: CN1Cc2nccc(-c3cn(C)nc3-c3ccc(F)cc3)c2C1=O

- % of inhibition [4]: 13.4%
Compound: Cn1cc(-n2cnc3c(NCc4nc5cc(Cl)c(Cl)cc5[nH]4)nc(N4CCOCC4)nc32)cn1

- % of activity ([5]; at 1 µM): 102%
- % of activity ([5]; at 10 µM): 99.7%
Compound: Cc1cc(C)cc([C@H]2c3cc(C)ccc3NC(=O)CN2C(=O)c2ccc(Br)s2)c1

Compound: COCC(=O)NC/C=C/c1ccc2ncnc(Nc3ccc(Oc4ccc(C)nc4)c(C)c3)c2c1 [CP-724714]
- IC50 [6]: > 10 µM
- % of control [7]: 97%
- % of control [8]: 96%

Compound: Nc1cnc(N2CCc3cc(S(=O)(=O)Nc4c(F)cc(Cl)cc4F)cc(N4CCCC4=O)c32)nc1 [TP-020n]
- % of control [9]: 100%

Compound: N#Cc1cccc(-c2c[nH]c3ncnc(N4CCOCC4)c23)c1
- % of control [10]: 83%

Compound: O[C@H]1CC[C@H](Nc2ncc3nc(Nc4c(F)cc(F)cc4F)n([C@H]4CCOC4)c3n2)CC1
- % of control [11]: 100%

Compound: CNC(=O)Nc1ccc(-c2nc(N3CC4CCC(C3)O4)c3cnn(C4CCC5(CC4)OCCO5)c3n2)cc1
- % of control [12]: 100%

Compound: COCCN1CCC(c2cc(CN(C)C(=O)c3cccc(Oc4ccccc4)c3)ccn2)CC1
- % activity ([13]; at 1 µM): > 95%
- % activity ([13]; at 10 µM): > 90%
